# Test results taken from US9023789B2, “Amylin analogs and pharmaceutical compositions thereof” (Novo Nordisk A/S, priority 2012, dated 2015).
# Like-named read-outs stand apart in the source and are kept apart here. Numbered stars: 1 amine (or outer) side, 2 acyl side, 3 side chain; on linkers, the order of the positions; unused ones are H or OH. Bridge positions count the residues as written; N and C are the ends. Side chains are listed from the residue outwards. Peptide text beside a SMILES is read from it. * marks the point of attachment. C20 diacid = O=C(O)CCCCCCCCCCCCCCCCCCC(=O)*; γGlu = O=C(O)[C@H](CCC(=O)[*:2])N[*:1]; AEEA = NCCOCCOCC(=O)O
# Assays:
# [1] = molecular target: T1, human amylin receptor (membranes from Amylin 3(a)/CRE-luc cells) (Homo sapiens, UniProt O60896+P30988); experiment: ASSAY (V) binding to the human amylin receptor (SPA, 125I-rat amylin);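 note: competition binding of cell membranes (35 ng/µL) mixed with SPA beads in 384-well plates at 40 µL total volume, read by scintillation counting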
# T1 construct: expressed in transfected cells
# T1 sequence (P30988 25-474): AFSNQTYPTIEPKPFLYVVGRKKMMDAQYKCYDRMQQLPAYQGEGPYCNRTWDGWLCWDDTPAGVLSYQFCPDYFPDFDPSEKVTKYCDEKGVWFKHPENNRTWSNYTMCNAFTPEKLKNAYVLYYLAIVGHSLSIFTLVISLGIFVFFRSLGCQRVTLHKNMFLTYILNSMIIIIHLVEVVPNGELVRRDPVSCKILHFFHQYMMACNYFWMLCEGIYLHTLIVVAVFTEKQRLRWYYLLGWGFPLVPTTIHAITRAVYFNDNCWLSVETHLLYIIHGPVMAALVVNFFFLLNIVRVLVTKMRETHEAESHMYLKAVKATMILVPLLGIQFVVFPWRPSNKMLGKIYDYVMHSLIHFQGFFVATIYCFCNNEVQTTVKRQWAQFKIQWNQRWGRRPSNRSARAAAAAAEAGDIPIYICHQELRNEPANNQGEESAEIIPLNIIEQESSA
# T1 sequence (O60896 24-148 partner): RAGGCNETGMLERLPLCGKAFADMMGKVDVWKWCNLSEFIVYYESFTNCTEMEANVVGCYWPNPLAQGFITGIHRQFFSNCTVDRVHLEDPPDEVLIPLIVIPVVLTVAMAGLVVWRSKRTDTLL
# Description: The binding assay was performed using scintillation proximity assay (SPA) beads (RPNQ0001) from PerkinElmer and cell membranes from the Amylin 3(a)/CRE-luc cells (as described in Assay (II)) were used. Membranes were prepared in the following way; the cells were rinsed with PBS and incubated with Versene for approximately 5 min before harvesting. The cells were flushed with PBS and the cell-suspension was centrifuged for 5 min at 1000 rpm. […] The resulting pellet was resuspended in buffer 2 and protein concentration was measured (BCA protein Assay, Pierce). The homogenate was kept cold during the whole procedure. The membranes were kept at −80° C. until use. The assay was performed in a 384 well Optiplate (PerkinElmer) in a total volume of 40 ul. Membranes were mixed with SPA beads. Final concentration of membranes 35 ng/μL final and SPA beads was 0.05 mg/well. Test-compounds were dissolved in DMSO and further diluted in assay buffer (50 mM Hepes, pH 7.4, 1 mM CaCl2, 5 mM MgCl2, 0.1% OA and 0.02% Tween20). […] Samples were analyzed on TopCounter™ (Packard). The IC50 was calculated using (one site binding competition analysis) GraphPad Prism5 as a measure of receptor affinity.
# rat calcitonin receptor = molecular target: T2, rat calcitonin receptor (Rattus norvegicus, UniProt P32214); experiment: ASSAY (VIII) binding to the rat calcitonin receptor; details: Table 7, read-out: rCTR bind IC50
# T2 construct: expressed in transfected cells; host or cells: BHK tk'ts 13 (transient, FuGENE 6), membranes
# T2 sequence (P32214 25-479 isoform P32214-2 limits assumed): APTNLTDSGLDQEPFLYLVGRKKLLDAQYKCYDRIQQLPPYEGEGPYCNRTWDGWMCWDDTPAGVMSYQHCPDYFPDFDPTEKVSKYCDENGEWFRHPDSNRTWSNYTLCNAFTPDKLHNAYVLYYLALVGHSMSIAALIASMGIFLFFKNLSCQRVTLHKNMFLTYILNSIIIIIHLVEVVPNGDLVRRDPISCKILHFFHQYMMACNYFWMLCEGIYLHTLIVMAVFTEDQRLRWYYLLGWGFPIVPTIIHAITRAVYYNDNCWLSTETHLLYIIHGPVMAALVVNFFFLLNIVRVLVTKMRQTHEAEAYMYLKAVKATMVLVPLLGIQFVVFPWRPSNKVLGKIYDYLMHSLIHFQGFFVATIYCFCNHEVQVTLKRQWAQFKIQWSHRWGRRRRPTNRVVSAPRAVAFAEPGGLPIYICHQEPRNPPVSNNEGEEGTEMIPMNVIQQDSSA
# Outline: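 Receptor source: membranes from transiently transfected BHK tk′ts 13 cells expressing rat calcitonin receptor, collected roughly 48 hours after transfection.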
# [2] = molecular target: T3, human amylin 3(a) receptor (human calcitonin receptor + RAMP-3) in BHK570 cells (Homo sapiens, UniProt O60896+P30988); experiment: ASSAY (II)a functional assay, human amylin receptor (CRE luciferase); assay type: cell-based
# T3 construct: expressed in transfected cells
# Outline: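 Functional agonism was measured by CRE-luciferase reporter luminescence in BHK cells bearing calcitonin receptor, or calcitonin receptor plus RAMP-3 as the amylin 3(a) receptor. Stimulation lasted 3 hours at 37° C.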
# [3] = ASSAY (IV) determination of solubility; assay type: physicochemical
# Outline: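 UPLC read-out of polypeptide concentration after centrifugation. Samples: aqueous polypeptide stock ([…]) + 100 mM buffer 1:1, glycylglycine pH 3.0–5.0 or bistrispropane pH 6.0–8.0; 18 h, RT.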
# [4] = molecular target: T4, rat amylin receptor (rat calcitonin receptor + rat RAMP 3) (Rattus norvegicus, UniProt P32214+Q9JJ73); experiment: ASSAY (VI) binding to the rat amylin receptor
# T4 construct: expressed in transfected cells; host or cells: BHK tk'ts 13 (transient, FuGENE 6), membranes
# T4 sequence (P32214 25-479 isoform P32214-2 limits assumed): T2 sequence (P32214 25-479 isoform P32214-2 limits assumed)
# T4 sequence (Q9JJ73 23-147 partner): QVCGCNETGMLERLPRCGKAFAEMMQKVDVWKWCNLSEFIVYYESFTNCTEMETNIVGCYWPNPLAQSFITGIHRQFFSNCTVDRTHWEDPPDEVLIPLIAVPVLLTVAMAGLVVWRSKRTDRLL
# Outline: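 The cell-membrane assay assessed binding at the rat amylin receptor. BHK tk′ts 13 cells were transfected transiently with rat calcitonin receptor, with FuGENE® 6 (Roche) as the transfection reagent, used per the manufacturer's recommendations. Approximately 48 hours after transfection the cells were harvested, and membranes were prepared for measuring binding.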
smiles,measurement,setting,value
CC[C@H](C)[C@H](NC(=O)[C@H](C)NC(=O)CNC(=O)[C@H](Cc1ccccc1)NC(=O)[C@H](CC(N)=O)NC(=O)[C@@H]1CCCN1C(=O)[C@H](CO)NC(=O)[C@H](CO)NC(=O)[C@H](Cc1c[nH]cn1)NC(=O)[C@H](CCCNC(=N)N)NC(=O)[C@H](CC(C)C)NC(=O)[C@H](Cc1ccccc1)NC(=O)[C@H](Cc1c[nH]cn1)NC(=O)[C@H](C)NC(=O)[C@H](CC(C)C)NC(=O)[C@H](CCCNC(=N)N)NC(=O)[C@H](CCC(N)=O)NC(=O)[C@@H](NC(=O)[C@H](C)NC(=O)[C@@H]1CSSC[C@H](NC(=O)[C@@H](N)CCCCNC(=O)COCCOCCNC(=O)CC[C@H](NC(=O)CCCCCCCCCCCCCCCCCCC(=O)O)C(=O)O)C(=O)N[C@@H](CC(N)=O)C(=O)N[C@@H]([C@@H](C)O)C(=O)N[C@@H](C)C(=O)N[C@@H]([C@@H](C)O)C(=O)N1)[C@@H](C)O)C(=O)N1CCC[C@H]1C(=O)N[C@@H](CO)C(=O)N[C@@H](CO)C(=O)N[C@H](C(=O)N[C@@H](CC(N)=O)C(=O)N[C@H](C(=O)NCC(=O)N[C@@H](CO)C(=O)N[C@@H](CC(N)=O)C(=O)N[C@H](C(=O)N[C@@H](Cc1ccc(O)cc1)C(N)=O)[C@@H](C)O)C(C)C)[C@@H](C)O [Example 69] (H-K([AEEA-γGlu-C20 diacid])CNTATCATQRLAHFLRHSSPNFGAIPSSTNVGSNTY-NH2; disulfide 2-7; N-terminus assumed),IC50,"[1]; Table 4, read-out: hAmylin-R bind IC50",0.133 nM
same,Ratio hCT/hAmylin binding,"[1]; Table 5, selectivity, hCTR bind IC50 / hAmylin-R bind IC50",65.3
same,Ratio hCT/hAmylin binding,"[1]; Table 5a, selectivity, hCTR bind IC50 / hAmylin-R bind IC50",65.3
same,Ratio hCT/hAmylin binding,"[1]; Table 5b, selectivity, hCTR bind IC50 / hAmylin-R bind IC50",65.3
same,Ratio hCT/hAmylin binding,"[1]; Table 5c, selectivity, hCTR bind IC50 / hAmylin-R bind IC50",65.3
same,Ratio hCT/hAmylin binding,"[1]; Table 7, human binding selectivity, included for comparison",65.3
same,Ratio hCT/hAmylin binding,"[1]; Table 7a (preferred compounds), human binding selectivity, included for comparison",65.3
same,Ratio hCT/hAmylin binding,[1]; ratio of human calcitonin receptor binding IC50 to human amylin receptor binding IC50,65.3
same,IC50,rat calcitonin receptor,46.8 nM
same,Ratio hCT/hAmylin funct.,[2]; hCTR funct. EC50 divided by hAmylin-R funct. EC50,13.3
same,Ratio hCT/hAmylin funct.,[2]; hCTR funct. EC50 over hAmylin-R funct. EC50,13.3
same,EC50,"[2]; human amylin receptor functional potency, assay (II), read-out: hAmylin-R funct. EC50",0.094 nM
same,Ratio hCT/hAmylin funct.,[2]; human functional selectivity: hCTR funct. EC50 / hAmylin-R funct. EC50,13.3
same,solubility at 18 h,"[3]; bistrispropane buffer, pH 6.5, read-out: Solubility pH 6.5 Concentration",≥ 200 µM
same,solubility at 18 h,"[3]; bistrispropane buffer, pH 7.5, read-out: Solubility pH 7.5 Concentration",≥ 200 µM
same,solubility at 18 h,"[3]; bistrispropane buffer, pH 6.0, read-out: Solubility pH 6.0 Concentration",≥ 200 µM
same,solubility at 18 h,"[3]; bistrispropane buffer, pH 7.0, read-out: Solubility pH 7.0 Concentration",≥ 200 µM
same,solubility at 18 h,"[3]; bistrispropane buffer, pH 8.0, read-out: Solubility pH 8.0 Concentration",≥ 200 µM
same,solubility at 18 h,"[3]; glycylglycine buffer, pH 3.0, read-out: Solubility pH 3.0 Concentration",≥ 200 µM
same,solubility at 18 h,"[3]; glycylglycine buffer, pH 4.0, read-out: Solubility pH 4.0 Concentration",≥ 200 µM
same,solubility at 18 h,"[3]; glycylglycine buffer, pH 5.0, read-out: Solubility pH 5.0 Concentration",≥ 200 µM
same,IC50,"[4]; Table 7, binding to rat amylin receptor, read-out: rAmylin-R bind IC50",0.45 nM
same,Ratio rCT/rAmylin binding,"[4]; Table 7, rat binding selectivity, rCTR IC50 / rAmylin-R IC50",104.0
same,Ratio rCT/rAmylin binding,"[4]; Table 7a (preferred compounds), rat binding selectivity, rCTR IC50 / rAmylin-R IC50",104.0
same,Ratio rCT/rAmylin binding,[4]; ratio of rCTR bind IC50 to rAmylin-R bind IC50,104.0
